Data as given in patent publication US12459951B2, “Compounds that interact with RAS superfamily proteins for treatment of cancers, inflammatory diseases, rasopathies, and fibrotic disease” (SHY Therapeutics, LLC, priority 2022, dated 2025).

Columns and labels:
Erk1/2 phosphorylation = experiment: Erk1/2 Phosphorylation Assay (western blot), Panc-1; assay type: cell-based, human; conditions: at 10 μM, * = activation
In short: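 KRas G12D Panc-1 cells were treated 6 h at 37° C with compound at 10 μM or serial dilutions for IC50 (0.3% DMSO). In method 1, cells were serum-starved overnight (0.5% FBS) and then given 1.5 ng/ml EGF for 15 min. In method 2, cells stayed in 10% FBS without stimulation. Lysate phospho-Erk1/2 (Thr202/Tyr204) was read by western blot.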

cdc42 = molecular target: T1, cdc42 (Homo sapiens, UniProt P60953); experiment: Cdc42 GTP Binding Domain Inhibition Assay; conditions: read-out: Cdc42: % inh.
T1 construct: made in house
T1 sequence (P60953 whole entry, the tested form may be a part): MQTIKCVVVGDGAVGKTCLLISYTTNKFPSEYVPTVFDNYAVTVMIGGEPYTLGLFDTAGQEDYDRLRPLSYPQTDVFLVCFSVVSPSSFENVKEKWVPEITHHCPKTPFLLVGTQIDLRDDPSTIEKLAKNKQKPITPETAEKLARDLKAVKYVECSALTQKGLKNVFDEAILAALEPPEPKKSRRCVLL
Procedure: Protocol for Cdc42 and Rheb GTP Binding Domain Inhibition Assay
The following method was developed as specific assay for cdc42 and Rheb proteins.
• 25 mM Tris-HCl, pH 7.4 • 27 mM KCl • 137 mM NaCl • 1 mM MgCl2 • 1 mM DTT Buffer-II: • 50 mM Tris-HCl, pH 7.0 • 1 mM MgCl2 • 1 mM DTT
The small GTPases proteins cdc42 and Rheb were expressed as His-tagged proteins. For the assay, the cdc42 and Rheb purified small GTPases proteins were diluted in Buffer-I or Buffer-II to a final concentration of 10-30 μg/mL. 200 μL of each diluted protein was added to a nickel-coated 96-well plate and incubated overnight at […]. Then the protein solution was discarded and 200 μL of Buffer-I or Buffer-II was added to each well in the presence of 1% DMSO. Compounds to be tested were added to the protein-coated wells at final concentration of 20 μM, and incubated for 3 hours at room temperature with and without 10-30 μg/mL of Sos added to the final hour of the incubation. When performing IC50 measurements a serial dilution of all tested concentrations was added. Then Cy3-GTP or Cy5-GTP was added to each well to a final concentration of 100 nM. The labeled GTP was incubated for 45 minutes at room temperature. Following GTP incubation, wells were washed 3× in Buffer-I or Buffer-II and 200 μL of Buffer-I or Buffer-II was added to each well. Following washes, the amount of bound labeled-GTP was measured using a SpectraMax M3 (Molecular Devices).

JNK phosphorylation = experiment: JNK Activation Assay (western blot), Panc-1; assay type: cell-based, human; conditions: at 10 μM, Panc-1 pancreatic cancer cell line; starred symbols = activation
In short: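 KRas G12C Panc-1 cells treated 6 h at 37 °C with compound at 10 μM (0.3% DMSO), or serial dilutions for IC50. In Method 1 cells were serum-starved overnight (0.5% FBS) then stimulated with 1.5 ng/ml EGF for 15 min; Method 2 used 10% FBS without stimulation. Phospho-JNK (Thr183/Tyr185) measured by western blot.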

Row | Structure (SMILES) | % inh of Erk1/2 phosphorylation in Panc-1 (Erk1/2 phosphorylation) | inhibition at 20 µM (cdc42) [%] | % inh of JNK in Panc-1 (JNK phosphorylation)
1 | Cc1c(-c2ccn(C(C)C)n2)cn2nc(-c3nccn3C)nc(Nc3ccncn3)c12 [Compound 55, 6-(1-Isopropyl-1H-pyrazol-3-yl)-5-methyl-2-(1-methyl-1H-imidazol-2-yl)-N-(pyrimidin-4-yl)pyrrolo[2,1-f][1,2,4]triazin-4-amine] | A (1-25% inhibition) | 50 to 75 | H* (H* ≥ 100% activation)
2 | Cc1c(-c2ccn(C(C)C)n2)cn2nc(-c3nccn3C)nc(Nc3ccccn3)c12 [Compound 57, 6-(1-Isopropyl-1H-pyrazol-3-yl)-5-methyl-2-(1-methyl-1H-imidazol-2-yl)-N-(pyridin-2-yl)pyrrolo[2,1-f][1,2,4]triazin-4-amine] | A* (1-25% activation) | 76 to 100 | H* (H* ≥ 100% activation)
3 | COc1ccc(-c2cn3nc(-c4nccn4C)nc(Nc4cc(OC)ncn4)c3c2C)cn1 [Compound 66, 6-(6-Methoxypyridin-3-yl)-N-(6-methoxypyrimidin-4-yl)-5-methyl-2-(1-methyl-1H-imidazol-2-yl)pyrrolo[2,1-f][1,2,4]triazin-4-amine] | C (50-84% inhibition) | 76 to 100 | H* (H* ≥ 100% activation)
4 | Cc1c(-c2ccn(C(C)C)n2)cn2nc(-c3nccn3C)nc(Nc3cnccn3)c12 [Compound 62, 6-(1-Isopropyl-1H-pyrazol-3-yl)-5-methyl-2-(1-methyl-1H-imidazol-2-yl)-N-(pyrazin-2-yl)pyrrolo[2,1-f][1,2,4]triazin-4-amine] | A (1-25% inhibition) | 1 to 25 | H* (H* ≥ 100% activation)
5 | COc1cc(Nc2nc(-c3nccn3C)nn3cc(-c4cccc(OC)n4)c(C)c23)ncn1 [Compound 65, 6-(6-Methoxypyridin-2-yl)-N-(6-methoxypyrimidin-4-yl)-5-methyl-2-(1-methyl-1H-imidazol-2-yl)pyrrolo[2,1-f][1,2,4]triazin-4-amine] | A (1-25% inhibition) | 26 to 49 | H* (H* ≥ 100% activation)
6 | COc1cccc(-c2cn3nc(-c4nccn4C)nc(N[C@H]4C[C@H](OC)C4)c3c2-c2ccn(C)n2)c1F [Compound 47, 6-(2-Fluoro-3-methoxyphenyl)-N-((1r,3r)-3-methoxycyclobutyl)-2-(1-methyl-1H-imidazol-2-yl)-5-(1-methyl-1H-pyrazol-3-yl)pyrrolo[2,1-f][1,2,4]triazin-4-amine] | C (50-84% inhibition) | 1 to 25 | H* (H* ≥ 100% activation)
7 | Cc1c(-c2ccn(C(C)C)n2)cn2nc(-c3nccn3C)nc(Nc3nc(C4CC4)no3)c12 [Compound 70, 3-Cyclopropyl-N-(6-(1-isopropyl-1H-pyrazol-3-yl)-5-methyl-2-(1-methyl-1H-imidazol-2-yl)pyrrolo[2,1-f][1,2,4]triazin-4-yl)-1,2,4-oxadiazol-5-amine] | B* (26-49% activation) | 1 to 25 | H* (H* ≥ 100% activation)
8 | Cc1c(-c2ccn(C(C)C)n2)cn2nc(-c3nccn3C)nc(Nc3ccn(C(C)C)n3)c12 [Compound 72, N,6-bis(1-Isopropyl-1H-pyrazol-3-yl)-5-methyl-2-(1-methyl-1H-imidazol-2-yl)pyrrolo[2,1-f][1,2,4]triazin-4-amine] | D* (85-100% activation) | 50 to 75 | H* (H* ≥ 100% activation)
9 | COc1cc(Nc2nc(-c3nccn3C)nn3cc(-c4cccnc4)c(C)c23)ncn1 [Compound 48, N-(6-Methoxypyrimidin-4-yl)-5-methyl-2-(1-methyl-1H-imidazol-2-yl)-6-(pyridin-3-yl)pyrrolo[2,1-f][1,2,4]triazin-4-amine] | A (1-25% inhibition) | 50 to 75 | 
10 | COc1cc(Nc2nc(-c3nccn3C)nn3cc(-c4ccn(C)n4)c(C)c23)ncn1 [Compound 63, N-(6-Methoxypyrimidin-4-yl)-5-methyl-2-(1-methyl-1H-imidazol-2-yl)-6-(1-methyl-1H-pyrazol-3-yl)pyrrolo[2,1-f][1,2,4]triazin-4-amine] | A (1-25% inhibition) | 76 to 100 | H* (H* ≥ 100% activation)
11 | Cc1c(-c2ccn(C(C)C)n2)cn2nc(-c3nccn3C)nc(Nc3nnc(C4CC4)o3)c12 [Compound 67, 5-Cyclopropyl-N-(6-(1-isopropyl-1H-pyrazol-3-yl)-5-methyl-2-(1-methyl-1H-imidazol-2-yl)pyrrolo[2,1-f][1,2,4]triazin-4-yl)-1,3,4-oxadiazol-2-amine] | D (85-100% inhibition) | 26 to 49 | H* (H* ≥ 100% activation)
12 | Cc1c(-c2ccn(C(C)C)n2)cn2nc(-c3nccn3C)nc(Nc3ncco3)c12 [Compound 60, N-(6-(1-Isopropyl-1H-pyrazol-3-yl)-5-methyl-2-(1-methyl-1H-imidazol-2-yl)pyrrolo[2,1-f][1,2,4]triazin-4-yl)oxazol-2-amine] | A (1-25% inhibition) | 1 to 25 | H* (H* ≥ 100% activation)
13 | COc1cncnc1Nc1nc(-c2nccn2C)nn2cc(-c3ccn(C(C)C)n3)c(C)c12 [Compound 73, 6-(1-Isopropyl-1H-pyrazol-3-yl)-N-(5-methoxypyrimidin-4-yl)-5-methyl-2-(1-methyl-1H-imidazol-2-yl)pyrrolo[2,1-f][1,2,4]triazin-4-amine] | D* (85-100% activation) | 50 to 75 | 
14 | COc1cc(Nc2nc(-c3nccn3C)nn3cc(-c4ccncc4)c(C)c23)ncn1 [Compound 49, N-(6-Methoxypyrimidin-4-yl)-5-methyl-2-(1-methyl-1H-imidazol-2-yl)-6-(pyridin-4-yl)pyrrolo[2,1-f][1,2,4]triazin-4-amine] | B* (26-49% activation) | 1 to 25 | 
15 | Cc1c(-c2ccn(C(C)C)n2)cn2nc(-c3nccn3C)nc(Nc3cc(C4CC4)n[nH]3)c12 [Compound 68, N-(3-Cyclopropyl-1H-pyrazol-5-yl)-6-(1-isopropyl-1H-pyrazol-3-yl)-5-methyl-2-(1-methyl-1H-imidazol-2-yl)pyrrolo[2,1-f][1,2,4]triazin-4-amine] | D* (85-100% activation) | 76 to 100 | 
16 | COCC1CCN(c2nc(-c3ccccn3)nn3cc(-c4ccn(C(C)C)n4)c(-c4ccccc4)c23)C1 (racemic) [Compound 25, rac 6-(1-Isopropyl-1H-pyrazol-3-yl)-4-(3-(methoxymethyl)pyrrolidin-1-yl)-5-phenyl-2-(pyridin-2-yl)pyrrolo[2,1-f][1,2,4]triazine] | 0 (0% inhibition) |  | H* (H* ≥ 100% activation)
17 | COc1ccc(Nc2nc(-c3nccn3C)nn3cc(-c4ccn(C(C)C)n4)c(C)c23)nn1 [Compound 74, 6-(1-Isopropyl-1H-pyrazol-3-yl)-N-(6-methoxypyridazin-3-yl)-5-methyl-2-(1-methyl-1H-imidazol-2-yl)pyrrolo[2,1-f][1,2,4]triazin-4-amine] | D* (85-100% activation) | 0 | 
18 | COc1cccc(-c2cn3nc(-c4nccn4C)nc(N[C@@H]4CC[C@H](OC)C4)c3c2-c2ccccc2)c1Cl (racemic) [Compound 33, rac 6-(2-Chloro-3-methoxyphenyl)-N-((1R,3S)-3-methoxycyclopentyl)-2-(1-methyl-1H-imidazol-2-yl)-5-phenylpyrrolo[2,1-f][1,2,4]triazin-4-amine] | D (85-100% inhibition) |  | G (G = 75-99% inhibition)
19 | COc1cc(-c2cn3nc(-c4nccn4C)nc(Nc4cc(OC)ncn4)c3c2C)ccn1 [Compound 50, 6-(2-Methoxypyridin-4-yl)-N-(6-methoxypyrimidin-4-yl)-5-methyl-2-(1-methyl-1H-imidazol-2-yl)pyrrolo[2,1-f][1,2,4]triazin-4-amine] | B* (26-49% activation) | 26 to 49 | 
